Paper PMC3261875 (PLoS ONE, 2012)

Target: T1, human heme oxygenase-2 (hHO-2) (Homo sapiens, UniProt P30519)
T1 construct: gene HMOX2; truncation derivative, 1–264 amino acids with an N-terminal His-tag
T1 sequence (P30519 1-264): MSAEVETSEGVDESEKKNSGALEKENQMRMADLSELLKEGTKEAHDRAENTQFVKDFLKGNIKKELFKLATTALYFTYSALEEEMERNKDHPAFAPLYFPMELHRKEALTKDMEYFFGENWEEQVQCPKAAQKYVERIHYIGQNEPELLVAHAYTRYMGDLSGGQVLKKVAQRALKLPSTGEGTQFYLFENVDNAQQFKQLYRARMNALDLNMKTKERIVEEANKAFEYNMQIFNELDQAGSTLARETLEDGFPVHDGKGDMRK
Experiment: spectral (Soret) binding and heme degradation assay on purified protein

## O=C(CC(c1ccccc1)c1ccccc1)Cn1ccnc1 [QC-308, 1-(1H-imidazol-1-yl)-4,4-diphenyl-2-butanone]
  spectral (Soret) binding and heme degradation assay on purified protein: the spectral changes upon addition of QC-308 were similar to those seen for hHO-1
